What is called melting point is the temperature of the solid-liquid transition. In the case of `N#CCC(=O)N[C@H]1CC[C@H](CCN2CCN(c3csc4cc(C(F)(F)F)ccc34)CC2)CC1` [Example 173, 2-Cyano-N-(4-{2-[4-(6-trifluoromethylbenzo[b]thiophen-3-yl)piperazin-1-yl]ethyl}cyclohexyl)acetamide], the melting point was 216 °C. `N#CCC(=O)N[C@H]1CC[C@H](CCN2CCN(c3cc(C(F)(F)F)ccc3F)CC2)CC1` [Example 174, 2-Cyano-N-(4-{2-[4-(2-fluoro-5-trifluoromethylphenyl)piperazin-1-yl]ethyl}cyclohexyl)acetamide] yielded a melting point of 197 °C. Turning to `COc1ccc(Cl)cc1N1CCN(CC[C@H]2CC[C@H](NC(=O)CC#N)CC2)CC1` [Example 176, N-(4-{2-[4-(5-Chloro-2-methoxyphenyl)piperazin-1-yl]ethyl}cyclohexyl)-2-cyanoacetamide], the melting point is 180 °C. Under `CC(C)(C)c1nc(N2CCN(CC[C@H]3CC[C@H](NC(=O)CC#N)CC3)CC2)cc(C(F)(F)F)n1` [Example 177, N-(4-{2-[4-(2-tert-Butyl-6-trifluoromethylpyrimidin-4-yl)piperazin-1-yl]ethyl}cyclohexyl)-2-cyanoacetamide trans/cis 85/15] stands 188 °C.

On to `Cc1c(N2CCN(CC[C@H]3CC[C@H](NC(=O)CC#N)CC3)CC2)cccc1C(F)(F)F` [Example 178, 2-Cyano-N-(4-{2-[4-(2-methyl-3-trifluoromethylphenyl)piperazin-1-yl]ethyl}cyclohexyl)acetamide], for which the melting point was determined as 181 °C.

Take `Cc1ccc(Cl)cc1N1CCN(CC[C@H]2CC[C@H](NC(=O)CC(F)(F)F)CC2)CC1` [Example 179, N-(4-{2-[4-(5-Chloro-2-methylphenyl)piperazin-1-yl]ethyl}cyclohexyl)-3,3,3-trifluoropropanamide]: the melting point fell in the range of 177 to 178 °C. Molecule `COc1cc(OC)cc(N2CCN(CC[C@H]3CC[C@H](NC(=O)CC#N)CC3)CC2)c1` [Example 180, 2-Cyano-N-(4-{2-[4-(3,5-dimethoxyphenyl)piperazin-1-yl]ethyl}cyclohexyl)acetamide] registered a melting point of 181 to 183 °C. For `N#CCC(=O)N[C@H]1CC[C@H](CCN2CCN(c3cc(F)cc(Cl)c3)CC2)CC1` [Example 181, N-(4-{2-[4-(3-Chloro-5-fluorophenyl)piperazin-1-yl]ethyl}cyclohexyl)-2-cyanoacetamide] the value was 181 to 183 °C. For `CSc1cccc(N2CCN(CC[C@H]3CC[C@H](NC(=O)CC#N)CC3)CC2)c1` [Example 182, 2-Cyano-N-(4-{2-[4-(3-methylsulfanylphenyl)piperazin-1-yl]ethyl}cyclohexyl)acetamide], the melting point turned out to be 132 °C.

In turn, `N#CCC(=O)N[C@H]1CC[C@H](CCN2CCN(c3cccc4ccccc34)CC2)CC1` [Example 183, 2-Cyano-N-{4-[2-(4-naphthalen-1-ylpiperazin-1-yl)ethyl]cyclohexyl}acetamide] yielded a melting point of 174 °C. As to `N#CCCCC(=O)N[C@H]1CC[C@H](CCN2CCN(c3cc(C(F)(F)F)cc(C(F)(F)F)c3)CC2)CC1` [Example 184, N-(4-{2-[4-(3,5-Bistrifluoromethylphenyl)piperazin-1-yl]ethyl}cyclohexyl)-4-cyanobutanamide], the melting point was 166 °C. For the molecule `N#CCC(=O)N[C@H]1CC[C@H](CCN2CCN(c3cccc(Cl)c3F)CC2)CC1` [Example 185, N-(4-{2-[4-(3-Chloro-2-fluorophenyl)piperazin-1-yl]ethyl}cyclohexyl)-2-cyanoacetamide], the melting point turned out to be 183 °C. `NC(=O)CCC(=O)N[C@H]1CC[C@H](CCN2CCN(c3ccccc3F)CC2)CC1` [Example 186, N-(4-{2-[4-(2-Fluorophenyl)piperazin-1-yl]ethyl}cyclohexyl)succinamide] registered a melting point of 255 °C. With `O=C(CC(F)(F)F)N[C@H]1CC[C@H](CCN2CCN(c3ccccc3)CC2)CC1` [Example 188, 3,3,3-Trifluoro-N-{4-[2-(4-phenylpiperazin-1-yl)ethyl]cyclohexyl}propanamide], the melting point is 185 °C.

The record behind these values is patent US8802678B2, “Carbonylated (aza) cyclohexanes as dopamine D3 receptor ligands” (Bioprojet, priority 2006, dated 2014).
